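Values below derive from 48-hour exposures of cells grown in 96-well plates, with endpoints linearly interpolated between the two concentrations bracketing the appropriate inhibition level. At the TGI there is no net growth.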 Where a SMILES comes first, the peptide text is derived from it. [ ]: non-standard residue; d: D form. The star is where a group is joined. hSer = N[CH](CCO)C(=O)O; Boc = CC(C)(C)OC(=O)*
Legend:
Assay in all cases: NCI anticancer screen, dose series, 48 h
BT-549 breast = system: BT-549 breast
HL-60(TB) leukemia = system: HL-60(TB) leukemia
MALME-3M melanoma = system: MALME-3M melanoma
SF-268 CNS = system: SF-268 CNS
RPMI-8226 leukemia = system: RPMI-8226 leukemia
A549 NSCLC = system: A549 NSCLC
RXF 393 renal = system: RXF 393 renal
K-562 leukemia = system: K-562 leukemia
NCI-H23 lung = system: NCI-H23 lung
SF-539 CNS = system: SF-539 CNS

Row | SMILES | TGI (BT-549 breast) | TGI (HL-60(TB) leukemia) | TGI (MALME-3M melanoma) | TGI (SF-268 CNS) | TGI (RPMI-8226 leukemia) | TGI (A549 NSCLC) | TGI (RXF 393 renal) | TGI (K-562 leukemia) | TGI (NCI-H23 lung) | TGI (SF-539 CNS)
1 | NCCC1(N)CCNCC1 | > 100 µM | > 100 µM | > 100 µM | > 100 µM | > 100 µM | > 100 µM | > 100 µM | > 100 µM | > 100 µM | > 100 µM
2 | CCOC(=O)c1cc2cc(Cc3ccc4[nH]c(C(=O)OCC)cc4c3)ccc2[nH]1 | 26.8 µM | > 100 µM | > 100 µM | 38.5 µM | > 100 µM | – | 29.4 µM | > 100 µM | 37.9 µM | 36.3 µM
3 | CCOC(=O)C1(Cc2ccc(C)cc2)Cc2ccc(C)cc2C1=O (centres undefined) | 80.8 µM | 23.6 µM | > 97.1 µM | > 100 µM | 64.2 µM | > 100 µM | 29.5 µM | > 41.4 µM | > 94.7 µM | 58.5 µM
4 | COc1c2nc(CCl)n(C)c(=O)c2c(OC)c2c(=O)n(C)c(CCl)nc12 | 1.96 µM | 2.47 µM | 3.44 µM | 4.52 µM | 1.64 µM | 13.3 µM | 4.14 µM | 7.83 µM | 3.4 µM | 13.1 µM
5 | CCOC(=O)c1ccc(NC2Oc3cc4c(cc3C(c3cc(OC)c(OC)c(OC)c3)C2C)OCO4)cc1 (centres undefined) | 6.76 µM | 0.564 µM | 0.677 µM | > 40.8 µM | 4.92 µM | > 73.2 µM | 93.9 µM | – | > 67.3 µM | 0.878 µM
6 | Cc1ccc(N=Nc2c(O)c3ccccc3[nH]c2=O)c(S(=O)(=O)N(C)C)c1 | > 100 µM | > 100 µM | > 100 µM | > 100 µM | > 100 µM | > 100 µM | > 100 µM | > 100 µM | > 100 µM | > 100 µM
7 | C/C(=N\Nc1nc2cc(C)ccc2s1)c1ccccn1 | > 69.1 µM | 0.699 µM | > 22 µM | 9.14 µM | 3.52 µM | > 31.6 µM | > 22.9 µM | – | 11.8 µM | 41.2 µM
8 | COC(=O)C1Cc2c(C)cccc2C1=O (centres undefined) | > 100 µM | 77.8 µM | > 100 µM | > 100 µM | > 100 µM | > 100 µM | > 100 µM | > 100 µM | > 100 µM | > 100 µM
9 | CN(NC(=O)c1ccco1)C1=NCCCCN1 | > 100 µM | > 100 µM | > 100 µM | > 100 µM | > 100 µM | > 100 µM | > 100 µM | > 100 µM | > 100 µM | > 100 µM
10 | O=c1c2cc([N+](=O)[O-])ccc2n2n1Cc1ccccc1CC2 | > 100 µM | > 100 µM | > 100 µM | > 100 µM | > 100 µM | > 100 µM | > 100 µM | > 100 µM | > 100 µM | > 100 µM
11 | CCOC(=O)C(NCc1ccccc1)(NC(=O)c1ccccc1)C(F)(F)F (centres undefined) | > 100 µM | > 100 µM | > 100 µM | > 100 µM | > 100 µM | > 100 µM | > 100 µM | > 100 µM | > 100 µM | > 100 µM
12 | CCC1(O)C=CC(=O)C=C1 | > 100 µM | > 100 µM | 28.2 µM | 52 µM | > 100 µM | > 100 µM | 38.2 µM | > 100 µM | 69.3 µM | 50.6 µM
13 | O=C1Nc2ccccc2C(=O)OC(Cc2ccccc2)=Nc2ccccc21 | > 100 µM | > 100 µM | – | > 100 µM | > 100 µM | > 100 µM | > 100 µM | > 100 µM | > 100 µM | > 100 µM
14 | CN(C)CC1CCC/C(=C\c2ccc(N(C)C)cc2)C1=O (centres undefined) | 29.7 µM | > 100 µM | 24.5 µM | 3.57 µM | > 100 µM | 32.1 µM | 21.2 µM | > 100 µM | 28.7 µM | 28.8 µM
15 | CCCCCCCCCCCCNC(=O)NCC(OCC)OCC | > 10 µM | – | – | > 10 µM | > 10 µM | > 10 µM | > 10 µM | > 10 µM | > 10 µM | > 10 µM
16 | COc1ccc(-n2sc3ncc(-c4ccccc4)cc3c2=O)cc1 | > 100 µM | > 100 µM | – | – | 66.8 µM | > 100 µM | > 100 µM | – | 53.3 µM | –
17 | COCCC(NC(=O)C(CC(C)C)NC(=O)OC(C)(C)C)C(N)=O (stereo not drawn) (Boc-Leu-[hSer](Me)-NH2; configuration not given here) | > 100 µM | > 100 µM | > 100 µM | > 100 µM | > 100 µM | > 100 µM | > 100 µM | > 100 µM | – | > 100 µM
18 | CCOC(=O)CC(C)C(C#N)(OP1(=O)OC(c2ccccc2)C(C)N1C)c1ccccc1 (centres undefined) | > 100 µM | 78.7 µM | > 100 µM | > 100 µM | > 100 µM | > 100 µM | > 100 µM | > 100 µM | > 100 µM | > 100 µM

Row | SMILES | TGI (BT-549 breast) | TGI (HL-60(TB) leukemia) | TGI (MALME-3M melanoma) | TGI (SF-268 CNS) | TGI (RPMI-8226 leukemia) | TGI (A549 NSCLC) | TGI (RXF 393 renal) | TGI (K-562 leukemia) | TGI (NCI-H23 lung) | TGI (SF-539 CNS)
19 | C1=C2SSC3=CC=C(SSc4ccc(s4)SSC4=CC=C(SSC(=C1)S2)S4)S3 | > 100 µM | – | > 100 µM | > 100 µM | > 100 µM | > 100 µM | > 100 µM | > 100 µM | > 100 µM | –
20 | CC12CC3c4ccccc4CN1C3(c1ccccc1)OC2=O (centres undefined) | > 100 µM | > 100 µM | > 100 µM | > 100 µM | – | > 100 µM | > 100 µM | – | > 100 µM | > 100 µM
21 | N/C(CC/C(N)=N\O)=N\O | > 100 µM | – | > 100 µM | > 100 µM | – | > 100 µM | > 100 µM | > 100 µM | > 100 µM | –
22 | CC(C)CN1CN(c2ccccc2)C2(CCN(CC(C)(c3ccc(F)cc3)C3OCCO3)CC2)C1=O (centres undefined) | 20.9 µM | 12.8 µM | 17.2 µM | 30.1 µM | – | 19.7 µM | 21.9 µM | 18 µM | 8.69 µM | 18.2 µM
23 | O=S(=O)(O)c1cc(Cl)c(O)c2ncc(Cl)cc12 | > 100 µM | – | – | – | > 100 µM | > 100 µM | > 100 µM | > 100 µM | > 100 µM | > 100 µM
24 | N#CI1OC(=O)c2ccccc21 | > 100 µM | > 100 µM | – | > 100 µM | > 100 µM | > 100 µM | > 100 µM | > 100 µM | > 100 µM | > 100 µM
25 | O=S(=O)(O)c1ccc(NN(c2c(O)ccc3ccccc23)S(=O)(=O)O)cc1 | > 100 µM | > 100 µM | > 100 µM | > 100 µM | > 100 µM | > 100 µM | – | > 100 µM | > 100 µM | > 100 µM
26 | Fc1cccc(F)c1C1SCC2=Nc3ccccc3CN21 (centres undefined) | > 100 µM | > 100 µM | – | – | > 100 µM | > 100 µM | 63.2 µM | > 100 µM | > 100 µM | 92.7 µM
27 | CCOC(=O)C1NCCc2c1[nH]c1ccccc21 (centres undefined) | > 10 µM | > 10 µM | > 10 µM | > 10 µM | > 10 µM | > 10 µM | > 10 µM | > 10 µM | > 10 µM | –
28 | c1cc(-c2cscc2-c2ccsc2)cs1 | > 100 µM | > 100 µM | – | > 100 µM | > 100 µM | > 100 µM | > 100 µM | > 100 µM | > 100 µM | 59.5 µM
29 | c1ccc(COc2ccc(C[P+](c3ccccc3)(c3ccccc3)c3ccccc3)cc2)cc1 | 3.26 µM | – | 1.82 µM | 14.2 µM | 0.201 µM | 11.3 µM | 0.361 µM | 2.17 µM | 1.36 µM | 3.5 µM
30 | COc1ccc(C2SCC(=O)N2N=C2NC(=O)CC(=O)N2)cc1 (centres undefined) | > 100 µM | – | > 100 µM | > 100 µM | > 100 µM | > 100 µM | > 100 µM | > 100 µM | > 100 µM | > 100 µM
31 | COC(=O)c1ccc(CN2CCc3c([nH]c4ccccc34)C2CO)o1 (centres undefined) | > 10 µM | > 10 µM | > 10 µM | > 10 µM | > 10 µM | > 10 µM | > 10 µM | > 10 µM | > 10 µM | –
32 | Oc1c(OCc2nnc(CCCCCCCCc3nnc(COc4ccc5ccccc5c4O)n3Nc3ccccc3)n2Nc2ccccc2)ccc2ccccc12 | 25.7 µM | – | 28.8 µM | 27 µM | 26.7 µM | 27.8 µM | 30.9 µM | > 100 µM | 35.2 µM | 20 µM
33 | CSc1nc2c(c(N(C)C)n1)C=Nn1c(nc3ccccc31)S2 | > 100 µM | – | > 100 µM | > 100 µM | > 100 µM | > 100 µM | > 100 µM | > 100 µM | > 100 µM | –
34 | Cc1c(C)c(C)c(-n2c(=O)n(C)c(=O)n2C(C)(C)C)c(C)c1C | > 100 µM | > 100 µM | – | > 100 µM | > 100 µM | > 100 µM | > 100 µM | > 100 µM | > 100 µM | > 100 µM
35 | Cc1cc(Br)c(N2C3=C(CC4=C2CCCC4=O)C(=O)CCC3)c(Br)c1 | > 100 µM | > 100 µM | – | > 100 µM | > 100 µM | > 100 µM | 84.7 µM | > 100 µM | > 100 µM | > 100 µM

From PubChem BioAssay (NCI)
